In patent US8952024B2, “Herbicidal pyrimidone derivatives” (E I du Pont de Nemours and Company, priority 2009, dated 2015):

Columns and labels:
Type in all cases: in vivo
[1] = system: Italian ryegrass (Lolium multiflorum); test: Test B pre-/postemergence plant response; settings: for Ryegrass, Italian plant response rating (0 to 100 scale): 62 g ai/ha, 0 is no effect
In short: (§1)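 Compound in solvent + surfactant applied pre-em (loam/sand) or post-em (plants 2–18 cm, peat medium); greenhouse hold 13–15 days; visual 0–100 control score.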

[2] = system: Surinam grass (Brachiaria decumbens); test: Test B pre-/postemergence plant response; settings: for Surinam Grass plant response rating (0 to 100 scale): 62 g ai/ha, 0 is no effect
In short: as §1

[3] = system: blackgrass (Alopecurus myosuroides); test: Test B pre-/postemergence plant response; settings: for Blackgrass plant response rating (0 to 100 scale): 62 g ai/ha, 0 is no effect
In short: as §1

[4] = system: cocklebur (Xanthium strumarium); test: Test B pre-/postemergence plant response; settings: for Cocklebur plant response rating (0 to 100 scale): 62 g ai/ha, 0 is no effect, 13 to 15 days
In short: as §1

corn (Zea mays) = test: Test B pre-/postemergence plant response; settings: for Corn plant response rating (0 to 100 scale): 62 g ai/ha, 0 is no effect
In short: as §1

[5] = system: downy bromegrass (Bromus tectorum); test: Test B pre-/postemergence plant response; settings: for Bromegrass, Downy plant response rating (0 to 100 scale): 62 g ai/ha, 0 is no effect
In short: as §1

[6] = system: giant foxtail (Setaria faberii); test: Test B pre-/postemergence plant response; settings: for Foxtail, Giant plant response rating (0 to 100 scale): 62 g ai/ha, 0 is no effect
In short: as §1

[7] = system: morningglory (Ipomoea coccinea); test: Test B pre-/postemergence plant response; settings: for Morningglory plant response rating (0 to 100 scale): 62 g ai/ha, 0 is no effect
In short: as §1

[8] = system: pigweed (Amaranthus retroflexus); test: Test B pre-/postemergence plant response; settings: for Pigweed plant response rating (0 to 100 scale): 62 g ai/ha, 0 is no effect
In short: as §1

wild oat (Avena fatua) = test: Test B pre-/postemergence plant response; settings: for Oat, Wild plant response rating (0 to 100 scale): 62 g ai/ha, 0 is no effect
In short: as §1

[9] = system: canarygrass (Phalaris minor); test: Test B postemergence plant response; settings: for Canarygrass plant response rating (0 to 100 scale): 62 g ai/ha, 0 is no effect
In short: (§2)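 Visual ratings from 0 (no effect) to 100 (complete control), made against controls 13–15 days after treatment, kept in a greenhouse. Compounds were applied postemergence to potted plants at the 1- to 4-leaf stage (2–18 cm).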

[10] = system: chickweed (Stellaria media); test: Test B postemergence plant response; settings: for Chickweed plant response rating (0 to 100 scale): 62 g ai/ha, 0 is no effect
In short: as §2

[11] = system: windgrass (Apera spica-venti); test: Test B postemergence plant response; settings: for Windgrass plant response rating (0 to 100 scale): 62 g ai/ha, 0 is no effect
In short: as §2

[12] = 31 g ai/ha, postemergence, scale 0 to 100, 0 is no effect, 100 is complete control
[13] = postemergence, 100 is complete control, 13 to 15 days
[14] = Postemergence, 250 g ai/ha, scale 0 to 100 (0 no effect, 100 complete control)
[15] = Postemergence, 125 g ai/ha, visual rating after 13 to 15 days, scale 0 (no effect) to 100 (complete control)
[16] = postemergence, 100 is complete control
[17] = Postemergence, 31 g ai/ha, 0 to 100 scale (0 no effect, 100 complete control)
[18] = Postemergence, 125 g ai/ha, scale 0 to 100 (0 no effect, 100 complete control)
[19] = Postemergence, 250 g ai/ha, scale 0 to 100 (0 no effect, 100 complete control), 13 to 15 days

SMILES: CCCCCn1c(-c2ccccc2)ncc(C(=O)C2=C(O)CCCC2=O)c1=O [Compound 89]
- Plant response rating, Ryegrass, Italian [1, 12]: 0
- Ryegrass, Italian plant response rating (0 to 100 scale) [1, 13]: 5
- Plant response rating, Ryegrass, Italian [1, 14]: 30
- Plant response rating, Surinam Grass [2, 12]: 55
- Surinam Grass plant response rating (0 to 100 scale) [2, 13]: 75
- Plant response rating, Surinam Grass [2, 14]: 95
- Plant response rating, Blackgrass [3, 12]: 10
- Blackgrass plant response rating (0 to 100 scale) [3, 13]: 15
- Plant response rating, Blackgrass [3, 15]: 20
- Plant response rating, Blackgrass [3, 14]: 30
- Plant response rating, Cocklebur [4, 12]: 10
- Cocklebur plant response rating (0 to 100 scale) [4, 16]: 60
- Plant response rating, Cocklebur [4, 15]: 65
- Plant response rating, Cocklebur [4, 14]: 70
- Plant response rating, Corn (corn (Zea mays); [12]): 80
- Corn plant response rating (0 to 100 scale) (corn (Zea mays); [13]): 95
- Plant response rating, Corn (corn (Zea mays); [15]): 98
- Plant response rating, Corn (corn (Zea mays); [14]): 98
- Plant response rating, Bromegrass, Downy [5, 12]: 0
- Bromegrass, Downy plant response rating (0 to 100 scale) [5, 13]: 0
- Plant response rating, Bromegrass, Downy [5, 15]: 5
- Plant response rating, Bromegrass, Downy [5, 14]: 5
- Plant response rating, Foxtail, Giant [6, 12]: 70
- Foxtail, Giant plant response rating (0 to 100 scale) [6, 13]: 85
- Plant response rating, Foxtail, Giant [6, 14]: 98
- Plant response rating, Morningglory [7, 12]: 70
- Morningglory plant response rating (0 to 100 scale) [7, 13]: 85
- Plant response rating, Morningglory [7, 14]: 100
- Plant response rating, Pigweed [8, 12]: 80
- Pigweed plant response rating (0 to 100 scale) [8, 13]: 98
- Plant response rating, Pigweed [8, 14]: 100
- Plant response rating, Oat, Wild (wild oat (Avena fatua); [12]): 10
- Oat, Wild plant response rating (0 to 100 scale) (wild oat (Avena fatua); [13]): 10
- Plant response rating, Oat, Wild (wild oat (Avena fatua); [14]): 50
- Plant response rating, Canarygrass [9, 12]: 10
- Canarygrass plant response rating (0 to 100 scale) [9, 13]: 35
- Plant response rating, Canarygrass [9, 15]: 50
- Plant response rating, Canarygrass [9, 14]: 60
- Plant response rating, Chickweed [10, 12]: 75
- Chickweed plant response rating (0 to 100 scale) [10, 13]: 80
- Plant response rating, Chickweed [10, 15]: 98
- Plant response rating, Chickweed [10, 14]: 98
- Plant response rating, Windgrass [11, 12]: 0
- Windgrass plant response rating (0 to 100 scale) [11, 13]: 5
- Plant response rating, Windgrass [11, 14]: 50

SMILES: CCCCn1c(-c2cccc(Cl)c2)ncc(C(=O)C2=C(O)CCCC2=O)c1=O [Compound 146]
- Ryegrass, Italian plant response rating (0 to 100 scale) [1, 13]: 5
- Plant response rating, Ryegrass, Italian [1, 17]: 5
- Plant response rating, Ryegrass, Italian [1, 18]: 10
- Plant response rating, Ryegrass, Italian [1, 19]: 15
- Surinam Grass plant response rating (0 to 100 scale) [2, 13]: 65
- Plant response rating, Surinam Grass [2, 17]: 65
- Plant response rating, Surinam Grass [2, 18]: 75
- Plant response rating, Surinam Grass [2, 19]: 75
- Blackgrass plant response rating (0 to 100 scale) [3, 13]: 30
- Plant response rating, Blackgrass [3, 17]: 5
- Plant response rating, Blackgrass [3, 18]: 35
- Plant response rating, Blackgrass [3, 19]: 50
- Cocklebur plant response rating (0 to 100 scale) [4, 16]: 25
- Plant response rating, Cocklebur [4, 17]: 10
- Corn plant response rating (0 to 100 scale) (corn (Zea mays); [13]): 5
- Plant response rating, Corn (corn (Zea mays); [17]): 0
- Plant response rating, Corn (corn (Zea mays); [18]): 20
- Plant response rating, Corn (corn (Zea mays); [19]): 35
- Bromegrass, Downy plant response rating (0 to 100 scale) [5, 13]: 5
- Plant response rating, Bromegrass, Downy [5, 17]: 0
- Plant response rating, Bromegrass, Downy [5, 18]: 10
- Plant response rating, Bromegrass, Downy [5, 19]: 35
- Foxtail, Giant plant response rating (0 to 100 scale) [6, 13]: 85
- Plant response rating, Foxtail, Giant [6, 17]: 75
- Plant response rating, Foxtail, Giant [6, 18]: 95
- Plant response rating, Foxtail, Giant [6, 19]: 98
- Morningglory plant response rating (0 to 100 scale) [7, 13]: 15
- Plant response rating, Morningglory [7, 17]: 0
- Plant response rating, Morningglory [7, 18]: 85
- Plant response rating, Morningglory [7, 19]: 95
- Pigweed plant response rating (0 to 100 scale) [8, 13]: 98
- Plant response rating, Pigweed [8, 17]: 95
- Plant response rating, Pigweed [8, 18]: 100
- Plant response rating, Pigweed [8, 19]: 100
- Oat, Wild plant response rating (0 to 100 scale) (wild oat (Avena fatua); [13]): 20
- Plant response rating, Oat, Wild (wild oat (Avena fatua); [17]): 0
- Plant response rating, Oat, Wild (wild oat (Avena fatua); [18]): 50
- Plant response rating, Oat, Wild (wild oat (Avena fatua); [19]): 70
- Canarygrass plant response rating (0 to 100 scale) [9, 13]: 0
- Plant response rating, Canarygrass [9, 17]: 0
- Plant response rating, Canarygrass [9, 18]: 5
- Plant response rating, Canarygrass [9, 19]: 10
- Chickweed plant response rating (0 to 100 scale) [10, 13]: 95
- Plant response rating, Chickweed [10, 17]: 70
- Plant response rating, Chickweed [10, 18]: 98
- Plant response rating, Chickweed [10, 19]: 98
- Windgrass plant response rating (0 to 100 scale) [11, 13]: 50
- Plant response rating, Windgrass [11, 17]: 45
- Plant response rating, Windgrass [11, 18]: 60
- Plant response rating, Windgrass [11, 19]: 60
